In patent US8119633B2, “Substituted sulfonamide compounds” (Gruenenthal GmbH, priority 2007, dated 2012):

What was measured:
[1] = molecular target: T1, human bradykinin receptor 1 (B1R) (Homo sapiens, UniProt P46663); assay: Functional study on the bradykinin receptor 1 (B1R), human: FLIPR Ca2+ influx assay; format: cell-based; conditions: test substance 10 μM; CHO K1 cells transfected with human B1R; Lys-Des-Arg9-bradykinin at EC80; Ca2+ influx (Fluo-4, FLIPR); read-out: B1R antagonism, human [10 μM] % inhibition
T1 construct: expressed in transfected cells; host or cells: CHO K1 cells
T1 sequence (P46663 1-353): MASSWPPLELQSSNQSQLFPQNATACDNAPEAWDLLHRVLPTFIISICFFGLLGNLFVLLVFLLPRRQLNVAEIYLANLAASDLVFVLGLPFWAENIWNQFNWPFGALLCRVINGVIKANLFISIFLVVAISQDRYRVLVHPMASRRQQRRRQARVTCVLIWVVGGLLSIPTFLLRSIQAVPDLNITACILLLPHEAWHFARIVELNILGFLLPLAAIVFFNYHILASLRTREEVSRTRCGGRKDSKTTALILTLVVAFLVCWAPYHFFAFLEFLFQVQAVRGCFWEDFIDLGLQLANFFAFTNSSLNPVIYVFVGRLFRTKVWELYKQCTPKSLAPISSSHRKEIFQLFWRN
Method in brief: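 CHO K1 cells stably expressing human B1R were loaded with Fluo-4, and Ca2+ fluorescence was read on FLIPR (ex 488/em 540 nm). Compound was added first (10 μM for % activation against Lys-Des-Arg9-bradykinin ≥0.5 nM). After 10-20 min, Lys-Des-Arg9-bradykinin was added at EC80 for % inhibition; IC50 came from concentration series, n=2-3, N≥2.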

[2] = molecular target: T2, bradykinin receptor 1 (B1R) of the rat (Rattus norvegicus, UniProt P97583); assay: Functional study on the bradykinin receptor 1 (B1R), rat: FLIPR Ca2+ influx assay; format: cell-based; conditions: test substance 10 μM; CHO K1 cells transfected with rat B1R; Des-Arg9-bradykinin at EC80; Ca2+ influx (Fluo-4, FLIPR); read-out: B1R antagonism, rat [10 μM] % inhibition
T2 construct: expressed in transfected cells; host or cells: CHO K1 cells
T2 sequence (P97583 1-337): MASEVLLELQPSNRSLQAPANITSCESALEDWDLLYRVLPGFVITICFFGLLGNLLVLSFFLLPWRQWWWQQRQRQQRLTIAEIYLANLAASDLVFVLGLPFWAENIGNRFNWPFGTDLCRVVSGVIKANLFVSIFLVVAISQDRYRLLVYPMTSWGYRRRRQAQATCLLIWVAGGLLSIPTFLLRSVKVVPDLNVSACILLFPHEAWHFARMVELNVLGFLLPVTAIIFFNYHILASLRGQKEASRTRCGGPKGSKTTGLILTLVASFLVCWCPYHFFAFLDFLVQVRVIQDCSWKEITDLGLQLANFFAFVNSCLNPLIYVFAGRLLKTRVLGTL
Method in brief: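 CHO K1 cells stably expressing rat B1R, Fluo-4-loaded, read on FLIPR (ex 488/em 540 nm, peak fluorescence). Test substances added first (agonism vs 10 μM Des-Arg9-bradykinin), then after 10-20 min Des-Arg9-bradykinin at EC80; % inhibition and IC50 from concentration series, n=2-3, N≥2.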

[3] = molecular target: T3, human μ-opiate receptor (Homo sapiens, UniProt P35372); assay: Affinity for the human μ-opiate receptor ([3H]-naloxone displacement, SPA); conditions: test substance 1 μmol/l; inhibition of specific [3H]-naloxone binding; CHO-K1 receptor membrane preparation; read-out: μ-Opioid receptor [1 μM] % inhibition
T3 construct: purchased PerkinElmer Life Sciences, Zaventem, Belgium RB-HOM; host or cells: CHO-K1 cells (membrane preparation)
Protocol: Studies of the Effectiveness of the Compounds According to the Invention Method for determining the affinity for the human μ-opiate receptor
The receptor affinity for the human μ-opiate receptor is determined in a homogeneous batch on microtitre plates. To this end, serial dilutions of the substances to be tested are incubated for 90 minutes at room temperature with a receptor membrane preparation (15-40 μg of protein/250 μl of incubation batch) of CHO-K1 cells, which express the human μ-opiate receptor (RB-HOM receptor membrane preparation from PerkinElmer Life Sciences, Zaventem, Belgium), in the presence of 1 nmol/l of the radioactive ligand [^3H]-naloxone (NET719, PerkinElmer Life Sciences, Zaventem, Belgium) and 1 mg of WGA-SPA beads (wheatgerm agglutinin SPA beads from Amersham/Pharmacia, Freiburg, Germany) in a total volume of 250 μl. The incubation buffer used is 50 mmol/l of Tris-HCl supplemented with 0.06 wt. % bovine serum albumin. In order to determine non-specific binding, 100 μmol/l of naloxone is additionally added. When the ninety-minute incubation time has ended, the microtitre plates are centrifuged off for 20 minutes at 1000 g and the radioactivity is measured in a β-counter (Microbeta-Trilux, PerkinElmer Wallac, Freiburg, Germany). The percentage displacement of the radioactive ligand from its binding to the human μ-opiate receptor at a concentration of the test substances of 1 μmol/l is determined and stated as the percentage inhibition of specific binding. On the basis of the percentage displacement by different concentrations of the test substances, IC50 inhibitory concentrations, which effect 50% displacement of the radioactive ligand, are calculated. Ki values for the test substances are obtained by conversion by means of the Cheng-Prusoff equation.

T3 sequence (P35372 whole entry): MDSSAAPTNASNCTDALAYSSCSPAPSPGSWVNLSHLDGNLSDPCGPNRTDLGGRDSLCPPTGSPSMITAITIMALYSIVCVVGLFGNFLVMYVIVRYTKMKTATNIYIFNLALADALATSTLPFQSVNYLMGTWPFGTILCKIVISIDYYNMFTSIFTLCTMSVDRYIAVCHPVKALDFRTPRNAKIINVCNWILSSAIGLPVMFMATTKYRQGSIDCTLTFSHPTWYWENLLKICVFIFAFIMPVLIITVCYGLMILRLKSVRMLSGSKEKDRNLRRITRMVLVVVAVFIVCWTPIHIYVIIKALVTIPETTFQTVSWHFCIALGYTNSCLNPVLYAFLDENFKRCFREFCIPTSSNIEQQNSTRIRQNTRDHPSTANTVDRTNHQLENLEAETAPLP

| SMILES | inhibition at 10 µM [1] [%] | inhibition at 10 µM [2] [%] | inhibition at 1 µM [3] [%] |
| --- | --- | --- | --- |
| O=C(CC1C(=O)Nc2ccccc2N1S(=O)(=O)c1ccc(Cl)c(Cl)c1)NCC1CCC(C(c2ccccc2)N2CCCC2)CC1 (stereo not drawn) [Example 67, 2-[1-(3,4-dichloro-benzenesulfonyl)-3-oxo-1,2,3,4-tetrahydro-quinoxalin-2-yl]-N-[4-(phenyl-pyrrolidin-1-yl-methyl)-cyclohexylmethyl]-acetamide] | 104 | 104 | 64 |
| O=C(CC1C(=O)Nc2ccccc2N1S(=O)(=O)c1ccc(Cl)c(Cl)c1)NC1CCC(C(CCc2ccccc2)N2CCCCC2)CC1 (stereo not drawn) [Example 68, 2-[1-(3,4-dichloro-benzenesulfonyl)-3-oxo-1,2,3,4-tetrahydro-quinoxalin-2-yl]-N-[4-(3-phenyl-1-piperidin-1-yl-propyl)-cyclohexyl]-acetamide] | 104 | 37 | 30 |
| O=C(CC1C(=O)Nc2ccccc2N1S(=O)(=O)c1ccc(Cl)c(Cl)c1)NC1CCC(C(CCc2ccccc2)N2CCOCC2)CC1 (stereo not drawn) [Example 69, 2-[1-(3,4-dichloro-benzenesulfonyl)-3-oxo-1,2,3,4-tetrahydro-quinoxalin-2-yl]-N-[4-(1-morpholin-4-yl-3-phenyl-propyl)-cyclohexyl]-acetamide] | 105 | 19 | 7 |
| CN1CCN(C(c2ccccc2)C2CCC(NC(=O)CC3C(=O)Nc4ccccc4N3S(=O)(=O)c3ccc(Cl)c(Cl)c3)CC2)CC1 (stereo not drawn) [Example 70, 2-[1-(3,4-dichloro-benzenesulfonyl)-3-oxo-1,2,3,4-tetrahydro-quinoxalin-2-yl]-N-{4-[(4-methyl-piperazin-1-yl)-phenyl-methyl]-cyclohexyl}-acetamide] | 104 | 98 | 11 |
| O=C1Nc2ccccc2N(S(=O)(=O)c2ccc(Cl)c(Cl)c2)C1CC(=O)N1CCC(C(c2ccccc2)N2CCOCC2)CC1 (stereo not drawn) [Example 71, 4-(3,4-dichloro-benzenesulfonyl)-3-{2-[4-(morpholin-4-yl-phenyl-methyl)piperidin-1-yl]-2-oxo-ethyl}-3,4-dihydro-1H-quinoxalin-2-one] | 104 | 32 | 12 |
| O=C1Nc2ccccc2N(S(=O)(=O)c2ccc(Cl)c(Cl)c2)C1CC(=O)N1CCC(C(Cc2ccccc2)N2CCOCC2)CC1 (stereo not drawn) [Example 72, 4-(3,4-dichlorophenylsulfonyl)-3-(2-(4-(1-morpholino-2-phenylethyl)piperidin-1-yl)-2-oxoethyl)-3,4-dihydroquinoxalin-2(1H)-one] | 102 | 30 | 26 |
| O=C(CC1CCCN1S(=O)(=O)c1ccc(Cl)c(Cl)c1)NCC1CCC(C(c2ccccc2)N2CCOCC2)CC1 (stereo not drawn) [Example 73, 2-[1-(3,4-dichloro-benzenesulfonyl)-pyrrolidin-2-yl]-N-[4-(morpholin-4-yl-phenyl-methyl)-cyclohexylmethyl]-acetamide] | 76.3 | 36 | 17 |
| O=C(CC1CCCN1S(=O)(=O)c1ccc(Cl)c(Cl)c1)NCC1CCC(C(CCc2ccccc2)N2CCOCC2)CC1 (stereo not drawn) [Example 74, 2-[1-(3,4-dichloro-benzenesulfonyl)-pyrrolidin-2-yl]-N-[4-(1-morpholin-4-yl-3-phenyl-propyl)-cyclohexylmethyl]-acetamide] | 54.7 | 19 | 7 |
| O=C(CC1CCCN1S(=O)(=O)c1ccc(Cl)c(Cl)c1)NCC1CCC(C(CCc2ccccc2)N2CCCC2)CC1 (stereo not drawn) [Example 75, 2-[1-(3,4-dichloro-benzenesulfonyl)-pyrrolidin-2-yl]-N-[4-(3-phenyl-1-pyrrolidin-1-yl-propyl)-cyclohexylmethyl]-acetamide] | 91.7 | 2 | 65 |
| O=C(CC1CCCN1S(=O)(=O)c1ccc(Cl)c(Cl)c1)NCC1CCC(C(c2ccccc2)N2CCCC2)CC1 (stereo not drawn) [Example 76, 2-[1-(3,4-dichloro-benzenesulfonyl)-pyrrolidin-2-yl]-N-[4-(phenyl-pyrrolidin-1-ylmethyl)-cyclohexylmethyl]-acetamide] | 80.4 | 9 | 84 |
| O=C(CC1CCCN1S(=O)(=O)c1ccc(Cl)c(Cl)c1)NC1CCC(C(CCc2ccccc2)N2CCCCC2)CC1 (stereo not drawn) [Example 77, 2-(1-(3,4-dichlorophenylsulfonyl)pyrrolidin-2-yl)-N-(4-(3-phenyl-1-(piperidin-1-yl)propyl)cyclohexyl)acetamide] | 102 | 1 | 35 |
| O=C(CC1CCCN1S(=O)(=O)c1ccc(Cl)c(Cl)c1)NC1CCC(C(CCc2ccccc2)N2CCOCC2)CC1 (stereo not drawn) [Example 78, 2-(1-(3,4-dichlorophenylsulfonyl)pyrrolidin-2-yl)-N-(4-(1-morpholino-3-phenylpropyl)cyclohexyl)acetamide] | 78.3 | 10 | 18 |
| CN1CCN(C(c2ccccc2)C2CCC(NC(=O)CC3CCCN3S(=O)(=O)c3ccc(Cl)c(Cl)c3)CC2)CC1 (stereo not drawn) [Example 79, 2-[1-(3,4-dichloro-benzenesulfonyl)-pyrrolidin-2-yl]-N-{4-[(4-methyl-piperazin-1-yl)-phenyl-methyl]-cyclohexyl}-acetamide] | 96.8 | 33 | 47 |
| O=C(CC1CCCN1S(=O)(=O)c1ccc(Cl)c(Cl)c1)N1CCC(C(c2ccccc2)N2CCOCC2)CC1 (stereo not drawn) [Example 80, 2-[1-(3,4-dichloro-benzenesulfonyl)-pyrrolidin-2-yl]-1-[4-(morpholin-4-yl-phenylmethyl)-piperidin-1-yl]-ethanone] | 16.7 | 15 | 7 |
| O=C(CC1CCCN1S(=O)(=O)c1ccc(Cl)c(Cl)c1)N1CCC(C(Cc2ccccc2)N2CCOCC2)CC1 (stereo not drawn) [Example 81, 2-(1-(3,4-dichlorophenylsulfonyl)pyrrolidin-2-yl)-1-(4-(1-morpholino-2-phenylethyl)piperidin-1-yl)ethanone] | 65.3 | 56 | 16 |
| O=C(CC1CCCCN1S(=O)(=O)c1ccc(Cl)c(Cl)c1)NCC1CCC(C(c2ccccc2)N2CCOCC2)CC1 (stereo not drawn) [Example 82, 2-[1-(3,4-dichloro-benzenesulfonyl)-piperidin-2-yl]-N-[4-(morpholin-4-yl-phenylmethyl)-cyclohexylmethyl]-acetamide] | 23.5 | 7 | 23 |
